Assay results from patent US20160263155A1, “T CELL RECEPTORS DIRECTED AGAINST THE PREFERENTIALLY EXPRESSED ANTIGEN OF MELANOMA AND USES THEREOF” (LEIDEN UNIVERSITY MEDICAL CENTER, priority 2015, published 2016).
Changes are numbered by the printed parent chain. Names may count otherwise. “Also recorded” adds a separate entry of the source.

Legend:
[1] = system: inducible caspase-9 expressing T cells; assay: CASPALLO and DOTTI trials: AP1903 given to subjects treated with T cells containing the iCaspase-9 suicide switch; type: in vivo, human
Method: The DOTTI trial is a follow-up study to the CASPALLO trial. Three subjects subsequently developed Grade I & II acute GVHD and were treated with a single dose of the dimerizing drug AP1903. Four subjects are alive at a median of 476 days after transplant (range 278-674 days), and who had received AP1903.

[2] = cited from earlier work
[3] = system: Cell A T cells (iCasp9); assay: In vivo Cell A response to rimiducid in NSG mice (flow cytometry of spleens); design: species or system NSG mouse; conditions: 24 hours after rimiducid 5 mg/kg i.p.; 42±1.1% in untreated mice; p<0.0001
Method: 16 mice received an i.v. injection of 1×10^7 Cell A T cells on Day 0 as outlined above. Forty eight hours later, eight of the mice were injected i.p. with rimiducid at 5 mg/kg to evaluate activation of iCasp9 and apoptosis of the Cell A T cells; the other eight mice were left untreated. […] Thus, the iCasp9 encoded within Cell A represents a functioning safety switch that can be triggered in vivo to eliminate Cell A cells.

[4] = system: T cells transduced with the PRAME-TCR in combination with the iCasp9; assay: PRAME reactivity of T cells transduced with PRAME-TCR in combination with iCasp9 after AP1903 treatment; type: cell-based, human; conditions: 100 nM AP1903 for 18 h (overnight)
Method: The TCRAV and TCRBV gene usage of clone AAV54 (also called clone 54 or HSS1) was determined using reverse transcriptase (RT)-PCR and sequencing^5. […]
FIG. 12, Different retroviral vectors encoding for the PRAME-TCR were transduced into virus specific T cells and the reactivity is measured against target cells loaded with different concentrations of the PRAME peptide and against two melanoma cell-lines: FM6 positive for HLA-A2 and PRAME, and M13046/2 positive for HLA-A2 but negative for PRAME. […]
FIG. 15 Different retroviral vectors encoding for the PRAME-TCR were transduced into virus specific T cells and the reactivity was measured against target cells (T2 cells) loaded with PRAME peptide and two PRAME positive and HLA-A2 positive melanoma cell-lines: 518.A2 and FM6, and one PRAME negative but HLA-A2 positive melanoma cell line M13046/2. […]

[5] = system: cells; assay: Amount of AP1903 needed in vitro for effective signaling of cells; type: cell-based
Method: The fixed dose of AP1903 for injection used, for example, may be 0.4 mg/kg intravenously infused over 2 hours. The amount of AP1903 needed in vitro for effective signaling of cells is about 10-100 nM (MW: 1412 Da). This equates to 14-140 μg/L or ˜0.014-0.14 mg/kg ([…]). The dosage may vary according to the application, and may, in certain examples, be more in the range of 0.1-10 nM, or in the range of 50-150 nM, 10-200 nM, 75-125 nM, 100-500 nM, 100-600 nM, 100-700 nM, 100-800 nM, or 100-900 nM. Doses up to 1 mg/kg were well-tolerated in the Phase I study of AP1903 described above.

[6] = system: CD3+ΔCD19+ cells (iCasp9+ T cells); assay: Phase I clinical trial of allodepleted T cells transduced with inducible caspase-9 suicide gene after haploidentical stem cell transplantation; type: in vivo, human
From the text: This example presents results of a phase 1 clinical trial using an alternative suicide gene strategy. Briefly, donor peripheral blood mononuclear cells were co-cultured with recipient irradiated EBV-transformed lymphoblastoid cells (40:1) for 72 hrs, allodepleted with a CD25 immunotoxin and then transduced with a retroviral supernatant carrying the iCasp9 suicide gene and a selection marker (ΔCD19); ΔCD19 allowed enrichment to >90% purity via immunomagnetic selection.
Patients developing grade 1 GvHD were treated with 0.4 mg/kg AP1903 as a 2-hour infusion. Protocols for administration of AP1903 to patients grade 1 GvHD were established as follows. Patients developing GvHD after infusion of allodepleted T cells are biopsied to confirm the diagnosis and receive 0.4 mg/kg of AP1903 as a 2 h infusion. […] Patients developing grades 2-4 GvHD were administered standard systemic immunosuppressive therapy per institutional guidelines, in addition to the AP1903 dimerizer drug.
Instructions for preparation and infusion: AP1903 for injection is obtained as a concentrated solution of 2.33 ml in a 3 ml vial, at a concentration of 5 mg/ml, (i.e., […] per vial). Prior to administration, the calculated dose was diluted to 100 mL in 0.9% normal saline for infusion. AP1903 for injection (0.4 mg/kg) in a volume of 100 ml was administered via IV infusion over 2 hours, using a non-DEHP, non-ethylene oxide sterilized infusion set and infusion pump.
Three patients received iCasp9^+ T cells after haplo-CD34^+ stem cell transplantation (SCT), at dose levels between about 1×10^6 to about 3×10^6 cells/kg.
Infused T cells were detected in vivo by flow cytometry (CD3^+ΔCD19^+) or qPCR as early as day 7 after infusion, with a maximum fold expansion of 170±5 (day 29±9 after infusion).

[7] = system: Cell A T cells (iCasp9 suicide gene); assay: Overnight culture of spleen and bone marrow cells from Cell A-treated animals with or without rimiducid; type: cell-based, NSG mouse; conditions: 10 nM rimiducid overnight; p<0.05
Method: A fraction of spleen and bone marrow cells were isolated from the Cell A-treated animals as analyzed above, and were cultured overnight with or without 10 nM rimiducid in order to determine the sensitivity of the suicide switch.

[8] = biological target: T1, PRAME peptide on HLA-A*02:01 (human); assay: multimer staining
T1 peptide: SLLQHLIGL

[9] = system: Ewing sarcoma cell lines; assay: HLA-class I expression of Ewing sarcoma cell lines after interferon treatment; type: cell-based, human; conditions: 48 h, 300 IU/ml IFN-alpha or 100 IU/ml IFN-gamma
[10] = system: neuroblastoma (NB) cell lines; assay: HLA-class I expression of neuroblastoma cell lines after interferon treatment; type: cell-based, human; conditions: 48 h, 300 IU/ml IFN-α or 100 IU/ml IFN-γ
[11] = system: chimeric Caspase-9 polypeptide; assay: Caspase mutant classes and basal activity (Table 3); type: cell-based, human; conditions: class heading of Table 3
chimeric Caspase-9 polypeptide, sequence (as listed by the source, change not shown): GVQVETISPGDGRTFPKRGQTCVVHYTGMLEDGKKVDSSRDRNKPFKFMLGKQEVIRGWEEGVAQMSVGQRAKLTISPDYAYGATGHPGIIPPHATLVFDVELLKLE

With `CC[C@H](C(=O)N1CCCC[C@H]1C(=O)O[C@H](CCc1ccc(OC)c(OC)c1)c1cccc(OCC(=O)NCCNC(=O)COc2cccc([C@@H](CCc3ccc(OC)c(OC)c3)OC(=O)[C@@H]3CCCCN3C(=O)[C@@H](CC)c3cc(OC)c(OC)c(OC)c3)c2)c1)c1cc(OC)c(OC)c(OC)c1` (relative stereo) [AP1903, 2-Piperidinecarboxylic acid, 1-[(2S)-1-oxo-2-(3,4,5-trimethoxyphenyl)butyl]-, 1,2-ethanediylbis [imino(2-oxo-2,1-ethanediyl)oxy-3,1-phenylene[(1R)-3-(3,4-dimethoxyphenyl)propylidene]] ester, [2S-[1(R*),2R*[S*[S*[1(R*),2R*]]]]]-(9CI)] the “elimination of inducible caspase-9 expressing T cells” value ([1]; 30 minutes from the end of a 2 hour intravenous infusion, CASPALLO trial) was at least 90%, the “adverse events associated with AP1903” value ([1]; CASPALLO and DOTTI trials) was “No adverse events; also recorded: no immediate or delayed adverse events” and the “acute GVHD after administration of AP1903” value ([1]; four subjects, CASPALLO trial) was “rapidly abrogated”. The well-tolerated doses ([2]; Phase I study) was “up to 1 mg/kg”, the “adverse event considered possibly related to AP1903” value ([2]; human, in vivo, 1 mg/kg) was “vasodilatation” and the “AP1903 plasma levels versus dose” value ([2]; human, in vivo) was “directly proportional to dose”. The “incidence of adverse events” value ([2]; human, in vivo) was “very low”, the serious adverse events ([2]; human, in vivo) was “No serious adverse events” and the “severity of adverse events” value ([2]; human, in vivo) was “mild”. For the same molecule, the “human T cells in spleen that were Vβ1+” value [3] was 7.3±0.2%, the “PRAME specific reactivity of T cells transduced with PRAME-TCR and iCasp9 after AP1903” value [4] was “abrogated” and the “amount of AP1903 needed for effective signaling, converted to dose” value [5] was 0.014 to 0.14 mg/kg. For the same molecule, the “amount of AP1903 needed in vitro for effective signaling of cells” value [5] was 10 to 100 nM, the “amount of AP1903 needed in vitro for effective signaling of cells, converted” value ([5]; MW 1412 Da) was 14 to 140 µg/L and the “resolution of skin and liver aGvHD” value ([6]; after AP1903 administration) was at most 24 h. For the same molecule, the “ablation of CD3+ΔCD19+ cells” value ([6]; within 30 minutes of infusion, two patients with grade I/II aGvHD, 0.4 mg/kg as 2-hour infusion) was over 90%, the “further reduction of CD3+ΔCD19+ cells” value ([6]; within 24 hours) was “further log reduction” and the “fraction of Vβ1+ T cells recovered from spleen and bone marrow” value [7] was “significantly reduced”.

B1: AAV46 SLL (TCR, V domains shown)
Valpha: GQQLNQSPQSMFIQEGEDVSMNCTSSSIFNTWLWYKQDPGEGPVLLIALYKAGELTSNGRLTAQFGITRKDSFLNISASIPSDVGIYFCAGIPRDNYGQNFVFGPGTRLSVLP
Vbeta: DVKVTQSSRYLVKRTGEKVFLECVQDMDHENMFWYRQDPGLGLRLIYFSYDVKMKEKGDIPEGYSVSREKKERFSLILESASTNQTSMYLCASTPWLAGGNEQFFGPGTRLTVL
B1: recognises [8].

B2: IFN-gamma: interferon used to treat tumor cell lines for 48 h (protein, UniProt P01579 24-161, looked up)
Interferon gamma: QDPYVKEAENLKKYFNAGHSDVADNGTLFLGILKNWKEESDRKIMQSQIVSFYFKLFKNFKDDQSIQKSVETIKEDMNVKFFNSNKKKRDDFEKLTNYSVTDLNVQRKAIHELIQVMAELSPAAKTGKRKRSQMLFRG
For B2, the “HLA-class I expression on the cell surface” value [9] was “increased” and the “HLA-class I expression on the cell surface” value [10] was “increased”.

B3: G402Q (protein)
chain: GFGDVGALESLRGNADLAYILSMEPCGHCLIINNVNFCRESGLRTRTGSNIDCEKLRRRFSSLHFMVEVKGDLTAKKMVLALLELAQQDHGALDCCVVVILSHGCQASHLQFPGAVYGTDGCPVSVEKIVNIFNGTSCPSLGGKPKLFFIQACGGEQKDHGFEVASTSPEDESPGSNPEPDATPFQEGLRTFDQLDAISSLPTPSDIFVSYSTFPGFVSWRDPKSGSWYVETLDDIFEQWAHSEDLQSLLLRVANAVSVKGIYKQMPQCFNFLRKKLFFKTS
With B3 the “Basal Activity” value [11] was “dead”.

B4: G402Y (protein)
chain: B3 chain with Q268Y
For B4, the “Basal Activity” value [11] was “dead”.

B5: S144A (protein)
chain: B3 chain with S10A, Q268G
With B5 the “Basal Activity” value [11] was “Decreased”.

B6: C403P (protein)
chain: B3 chain with Q268G, C269P
For B6, the “Basal Activity” value [11] was “dead”.

B7: S196D (protein)
chain: B3 chain with S62D, Q268G
With B7 the “Basal Activity” value [11] was “Decreased”.

B8: S144D (protein)
chain: B3 chain with S10D, Q268G
In the case of B8, the “Basal Activity” value [11] is reported as “Decreased”.

B9: T317S (protein)
chain: B3 chain with T183S, Q268G
In the case of B9, the “Basal Activity” value [11] is reported as “Decreased”.

B10: AAV54 SLL (TCR, V domains shown)
Valpha: AQSVTQLGSHVSVSERALVLLRCNYSSSVPPYLFWYVQYPNQGLQLLLKYTSAATLVKGINGFEAEFKKSETSFHLTKPSAHMSDAAEYFCAVSGQTGANNLFFGTGTRLTVIP
Vbeta: DSGVTQTPKHLITATGQRVTLRCSPRSGDLSVYWYQQSLDQGLQFLIQYYNGEERAKGNILERFSAQQFPDLHSELNLSSLELGDSALYFCASARWDRGGEQYFGPGTRLTVT
B10: recognises [8].
